Assays:
[1] = Host toxicity monitoring in the CWR22Rv1 xenograft study (body weight, health status); assay type: in vivo, male NOD SCID mice
Procedure: Following the in vitro studies and determination of the PK parameters, we then investigated the relative efficacy. Gal and the NGGAs in vivo using difficult-to-treat castration-resistant CWR22Rv1 xenografts. Given the enhanced IP and PO PK parameters of VNPP414 and VNPP433-3β over Gal, we decided to use lower doses of the new analogs compared to the previous Gal doses (200 mg/kg, IP/PO). Gal (200 mg/kg) served as positive control, while ENZ (25 mg/kg) administered PO was used as negative control. Male NOD SCID mice bearing CWR22Rv1 tumors were treated with vehicle, ENZ, Gal, VNPP414, and VNPP433-3β for 16 days as described in the Methods and Materials Section. […] In contrast, Gal and the NGGAs caused statistically significant tumor growth inhibition (TGI). […] It is notable that VNPP433-3β (at 7.5- and 15-fold lower molar doses) and VNPP414 (at 4-fold lower molar dose) are more efficacious than Gal. In general, no host toxicities were observed, as monitored by changes in animal body weight (Figure 7C). […]

[2] = tested on: drug-naïve and drug-resistant prostate cancer cell lines (six different cell lines); test: MTT cell viability (antiproliferative) assay, GI50; assay type: cell-based; conditions: Homo sapiens, 168 h, read-out: GI50 (concentration required to inhibit cell growth by 50%), range over the six cell lines tested, 7 days
Text: The new NGGAs (VNPP414 and VNPP433-3β) were identified from in vitro anti-proliferative activities of our in-house compounds assessed in several PC cell lines, including LNCaP, C4-2B, and CWR22Rv1 (22Rv1). […] It was recently reported that treatment of AR-expressing bladder cancer cell lines with enzalutamide induced up-regulation of tumor suppressor, p53, p21 and PTEN, and down-regulation of several oncogenic genes, such as c-myc, cyclin D1, and cyclin E [38]. […] We note that these cell-cycle studies were conducted in LNCaP cells. Inhibition of colony formations (clonogenicity assays) was also assessed by treating the parental CWR-R1 cells and two drug-resistant counterparts with Gal, VNPP433-3β, or ENZ.
(A) Comparative GI50 values of Gal, NGGAs, and enzalutamide (ENZ) in drug-naïve-/-resistant prostate cancer cells. (B) Gal and NGGAs induce G1 cell cycle arrest in LNCaP cells. (C) VNPP414 and VNPP433-3β deplete the cell cycle regulator, cyclin D1, and upregulate p21; “+” indicates specific treatments. (D) Gal cause dose-dependent depletion of cyclin D1. […] (F) Quantification of colony formation units (CFU) in drug-naive/resistant cells. Colony assays were repeated three times and colonies counted in four quadrants of the wells. […]
MTT assays were performed as described in our previous publications. […] Data was analyzed with GraphPad prism 4 software.

C[C@]12CC[C@H](n3ccnc3)CC1=CCC1C2CC[C@]2(C)C(n3cnc4ccccc43)=CCC12 (stereo partly drawn) [VNPP433-3β]
mortality ([1]; 30 mg/kg PO once daily group, 5 mice): one mouse died on day 16
host toxicity, monitored by changes in animal body weight ([1]; CWR22Rv1 tumor-bearing mice, PO, 16 days): no apparent host toxicity
GI50 [2]: 1120 to 2540 nM
